Laboratory results published in patent publication US20240109917A1 (ACTELION PHARMACEUTICALS LTD, priority 2020, published 2024).

Target: VEGFR2, unphosphorylated (Homo sapiens (Human), UniProt P35968)
Assay: VEGFR ADP GLO Assay
Assay type: biochemical

Sequence of VEGFR2, unphosphorylated (P35968 20-1356): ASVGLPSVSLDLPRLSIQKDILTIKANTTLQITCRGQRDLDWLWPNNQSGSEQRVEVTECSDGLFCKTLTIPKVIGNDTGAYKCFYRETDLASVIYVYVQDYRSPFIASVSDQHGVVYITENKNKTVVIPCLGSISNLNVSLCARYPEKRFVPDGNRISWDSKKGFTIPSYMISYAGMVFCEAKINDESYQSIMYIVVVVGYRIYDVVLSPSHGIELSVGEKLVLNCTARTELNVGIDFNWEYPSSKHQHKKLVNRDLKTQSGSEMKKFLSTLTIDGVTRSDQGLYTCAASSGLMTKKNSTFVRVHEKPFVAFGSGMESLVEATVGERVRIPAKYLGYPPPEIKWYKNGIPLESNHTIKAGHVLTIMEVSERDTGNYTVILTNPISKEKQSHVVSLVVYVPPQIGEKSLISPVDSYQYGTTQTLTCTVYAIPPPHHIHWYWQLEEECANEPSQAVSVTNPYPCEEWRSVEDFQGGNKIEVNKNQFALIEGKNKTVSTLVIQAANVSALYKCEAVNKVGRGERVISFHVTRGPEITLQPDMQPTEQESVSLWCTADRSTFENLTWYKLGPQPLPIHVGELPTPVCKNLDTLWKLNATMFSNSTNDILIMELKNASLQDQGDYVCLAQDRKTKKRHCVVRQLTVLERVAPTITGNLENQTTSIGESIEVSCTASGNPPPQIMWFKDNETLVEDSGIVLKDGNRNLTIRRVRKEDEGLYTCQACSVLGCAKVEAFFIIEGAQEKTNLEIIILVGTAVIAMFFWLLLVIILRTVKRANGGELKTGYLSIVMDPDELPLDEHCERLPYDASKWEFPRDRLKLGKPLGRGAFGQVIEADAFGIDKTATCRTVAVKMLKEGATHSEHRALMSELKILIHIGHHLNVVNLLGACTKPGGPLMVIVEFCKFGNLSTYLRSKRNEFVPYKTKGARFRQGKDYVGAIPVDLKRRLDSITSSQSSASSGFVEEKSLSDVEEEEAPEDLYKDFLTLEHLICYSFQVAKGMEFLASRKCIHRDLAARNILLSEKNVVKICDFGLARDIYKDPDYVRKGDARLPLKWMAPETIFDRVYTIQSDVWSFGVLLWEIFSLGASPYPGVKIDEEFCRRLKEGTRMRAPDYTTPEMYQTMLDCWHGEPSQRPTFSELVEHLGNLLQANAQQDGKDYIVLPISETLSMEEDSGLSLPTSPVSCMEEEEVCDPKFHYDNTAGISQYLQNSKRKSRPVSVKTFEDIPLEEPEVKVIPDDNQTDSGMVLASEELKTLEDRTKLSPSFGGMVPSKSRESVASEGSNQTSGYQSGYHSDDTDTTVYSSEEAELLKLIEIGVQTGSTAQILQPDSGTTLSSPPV

| SMILES | IC50 |
| --- | --- |
| Cc1ncc(NC(=O)NCCN2CCCC2(C)C)cc1NC(=O)c1cnn2cc(-c3cnn(C)c3)sc12 [Example 38, N-(5-(3-(2-(2,2-dimethylpyrrolidin-1-yl)ethyl)ureido)-2-methyl-pyridin-3-yl)-2-(1-methyl-1H-pyrazol-4-yl)pyrazolo[5,1-b]thiazole-7-carboxamide] | > 7.5 µM |
| Cc1ncc(C(=O)NCCN2CCCC2(C)C)cc1NC(=O)c1cnn2cc(-c3cnn4c3OCCC4)sc12 [Example 460, 2-(6,7-dihydro-5H-pyrazolo[5,1-b][1,3]oxazin-3-yl)-N-(5-((2-(2,2-dimethylpyrrolidin-1-yl)ethyl)carbamoyl)-2-methylpyridin-3-yl)pyrazolo[5,1-b]thiazole-7-carboxamide] | > 7.5 µM |
| Cc1ncc(NC(=O)CN2CCCCC2)cc1NC(=O)c1cnn2cc(-c3cnn4c3OCCC4)sc12 [Example 419, 2-(6,7-dihydro-5H-pyrazolo[5,1-b][1,3]oxazin-3-yl)-N-(2-methyl-5-(2-(piperidin-1-yl)acetamido)pyridin-3-yl)pyrazolo[5,1-b]thiazole-7-carboxamide] | > 7.5 µM |
| Cc1ncc(NC(=O)CN2CCCC2(C)C)cc1NC(=O)c1cnn2cc(-c3cn(C)nc3C)sc12 [Example 444, 2-(1,3-Dimethyl-1H-pyrazol-4-yl)-N-(5-(2-(2,2-dimethylpyrrolidin-1-yl)acetamido)-2-methylpyridin-3-yl)pyrazolo[5,1-b]thiazole-7-carboxamide] | > 7.5 µM |
| Cc1ncc(NC(=O)CN2CCC23CCC3)cc1NC(=O)c1cnn2cc(-c3cnn4c3OCCC4)sc12 [Example 408, N-(5-(2-(1-azaspiro[3.3]heptan-1-yl)acetamido)-2-methylpyridin-3-yl)-2-(6,7-dihydro-5H-pyrazolo[5,1-b][1,3]oxazin-3-yl)pyrazolo[5,1-b]thiazole-7-carboxamide] | > 7.5 µM |
| CCOc1ncccc1-c1cn2ncc(C(=O)Nc3cc(NC(=O)CN4CC(C)(C)C4)cnc3C)c2s1 [Example 436, N-(5-(2-(3,3-Dimethylazetidin-1-yl)acetamido)-2-methylpyridin-3-yl)-2-(2-ethoxypyridin-3-yl)pyrazolo[5,1-b]thiazole-7-carboxamide] | 4.3 µM |
| Cc1ncc(NC(=O)CN2CCC[C@@H]2C)cc1NC(=O)c1cnn2cc(-c3cnn4c3OCCC4)sc12 [Example 413, (S)-2-(6,7-dihydro-5H-pyrazolo[5,1-b][1,3]oxazin-3-yl)-N-(2-methyl-5-(2-(2-methylpyrrolidin-1-yl)acetamido)pyridin-3-yl)pyrazolo[5,1-b]thiazole-7-carboxamide] | > 7.5 µM |
| Cc1ncc(NC(=O)CNCC2CC2)cc1NC(=O)c1cnn2cc(-c3cnn4c3OCCC4)sc12 [Example 453, N-(5-(2-((cyclopropylmethyl)amino)acetamido)-2-methylpyridin-3-yl)-2-(6,7-dihydro-5H-pyrazolo[5,1-b][1,3]oxazin-3-yl)pyrazolo[5,1-b]thiazole-7-carboxamide] | > 7.5 µM |
| Cc1ncc(C(=O)NCCN2CC3CCC2CC3)cc1NC(=O)c1cnn2cc(-c3cnn4c3OCCC4)sc12 [Example 477, N-(5-((2-(2-azabicyclo[2.2.2]octan-2-yl)ethyl)carbamoyl)-2-methylpyridin-3-yl)-2-(6,7-dihydro-5H-pyrazolo[5,1-b][1,3]oxazin-3-yl)pyrazolo[5,1-b]thiazole-7-carboxamide] | > 7.5 µM |
| Cc1ncc(NC(=O)CN2CC3(COC3)C2)cc1NC(=O)c1cnn2cc(-c3cnn4c3OCCC4)sc12 [Example 411, N-(5-(2-(2-oxa-6-azaspiro[3.3]heptan-6-yl)acetamido)-2-methylpyridin-3-yl)-2-(6,7-dihydro-5H-pyrazolo[5,1-b][1,3]oxazin-3-yl)pyrazolo[5,1-b]thiazole-7-carboxamide] | > 7.5 µM |
| Cc1ncc(NC(=O)CC2CN(C)C2)cc1NC(=O)c1cnn2cc(-c3cnn4c3CCC4)sc12 [Example 427, 2-(5,6-dihydro-4H-pyrrolo[1,2-b]pyrazol-3-yl)-N-(2-methyl-5-(2-(1-methylazetidin-3-yl)acetamido)pyridin-3-yl)pyrazolo[5,1-b]thiazole-7-carboxamide] | > 7.5 µM |
| Cc1ncc(NC(=O)CN2CCCC2(C)C)cc1NC(=O)c1cnn2cc(-c3cnn(C(C)(C)CO)c3)sc12 [Example 457, N-(5-(2-(2,2-dimethylpyrrolidin-1-yl)acetamido)-2-methylpyridin-3-yl)-2-(1-(1-hydroxy-2-methylpropan-2-yl)-1H-pyrazol-4-yl)pyrazolo[5,1-b]thiazole-7-carboxamide] | > 7.5 µM |
| Cc1ncc(NC(=O)CN2CCCCCC2)cc1NC(=O)c1cnn2cc(-c3cnn4c3OCCC4)sc12 [Example 420, N-(5-(2-(azepan-1-yl)acetamido)-2-methylpyridin-3-yl)-2-(6,7-dihydro-5H-pyrazolo[5,1-b][1,3]oxazin-3-yl)pyrazolo[5,1-b]thiazole-7-carboxamide] | > 7.5 µM |
| Cc1ncc(NC(=O)CN2CCC23CCC3)cc1NC(=O)c1cnn2cc(-c3cnn4c3COCC4)sc12 [Example 475, N-(5-(2-(1-azaspiro[3.3]heptan-1-yl)acetamido)-2-methylpyridin-3-yl)-2-(6,7-dihydro-4H-pyrazolo[5,1-c][1,4]oxazin-3-yl)pyrazolo[5,1-b]thiazole-7-carboxamide] | > 7.5 µM |
| COCCn1cc(-c2cn3ncc(C(=O)Nc4cc(NC(=O)CCC5CCCN5C)cnc4C)c3s2)cn1 (stereo not drawn) [Example 462, 2-(1-(2-methoxyethyl)-1H-pyrazol-4-yl)-N-(2-methyl-5-(3-(1-methylpyrrolidin-2-yl)propanamido)pyridin-3-yl)pyrazolo[5,1-b]thiazole-7-carboxamide] | > 7.5 µM |
| COCCn1cc(-c2cn3ncc(C(=O)Nc4cc(NC(=O)CCC5CCCN5C(C)C)cnc4C)c3s2)cn1 (stereo not drawn) [Example 463, N-(5-(3-(1-isopropylpyrrolidin-2-yl)propanamido)-2-methylpyridin-3-yl)-2-(1-(2-methoxyethyl)-1H-pyrazol-4-yl)pyrazolo[5,1-b]thiazole-7-carboxamide] | > 7.5 µM |
| Cc1ncc(C(=O)NCCN2CC3CCC2CC3)cc1NC(=O)c1cnn2cc(-c3cnn4c3COCC4)sc12 [Example 459, N-(5-((2-(2-azabicyclo[2.2.2]octan-2-yl)ethyl)carbamoyl)-2-methylpyridin-3-yl)-2-(6,7-dihydro-4H-pyrazolo[5,1-c][1,4]oxazin-3-yl)pyrazolo[5,1-b]thiazole-7-carboxamide] | > 7.5 µM |
| COCCn1cc(-c2cn3ncc(C(=O)Nc4cc(NC(=O)C[C@@H]5CCCN5C(C)C)cnc4C)c3s2)cn1 [Example 451, (S)—N-(5-(2-(1-isopropylpyrrolidin-2-yl)acetamido)-2-methylpyridin-3-yl)-2-(1-(2-methoxyethyl)-1H-pyrazol-4-yl)pyrazolo[5,1-b]thiazole-7-carboxamide] | > 7.5 µM |
| COCCn1cc(-c2cn3ncc(C(=O)Nc4cc(NC(=O)C[C@@H]5CCN(C(C)C)C5)cnc4C)c3s2)cn1 [Example 466, (S)—N-(5-(2-(1-isopropylpyrrolidin-3-yl)acetamido)-2-methylpyridin-3-yl)-2-(1-(2-methoxyethyl)-1H-pyrazol-4-yl)pyrazolo[5,1-b]thiazole-7-carboxamide] | > 7.5 µM |
| Cc1ncc(NC(=O)CN2CCCC23CCC3)cc1NC(=O)c1cnn2cc(-c3cnc4n3CCOC4)sc12 [Example 418, N-(5-(2-(5-azaspiro[3.4]octan-5-yl)acetamido)-2-methylpyridin-3-yl)-2-(5,6-dihydro-8H-imidazo[2,1-c][1,4]oxazin-3-yl)pyrazolo[5,1-b]thiazole-7-carboxamide] | > 7.5 µM |
| Cc1ncc(NC(=O)CN2CCC2)cc1NC(=O)c1cnn2cc(-c3cnn4c3OCCC4)sc12 [Example 412, N-(5-(2-(azetidin-1-yl)acetamido)-2-methylpyridin-3-yl)-2-(6,7-dihydro-5H-pyrazolo[5,1-b][1,3]oxazin-3-yl)pyrazolo[5,1-b]thiazole-7-carboxamide] | > 7.5 µM |
| Cc1ncc(NC(=O)CNC2CCCC2)cc1NC(=O)c1cnn2cc(-c3cnn4c3OCCC4)sc12 [Example 421, N-(5-(2-(cyclopentylamino)acetamido)-2-methylpyridin-3-yl)-2-(6,7-dihydro-5H-pyrazolo[5,1-b][1,3]oxazin-3-yl)pyrazolo[5,1-b]thiazole-7-carboxamide] | > 7.5 µM |
| Cc1ncc(NC(=O)CN2CCC3(CC3)C2)cc1NC(=O)c1cnn2cc(-c3cnn4c3COCC4)sc12 [Example 474, N-(5-(2-(5-azaspiro[2.4]heptan-5-yl)acetamido)-2-methylpyridin-3-yl)-2-(6,7-dihydro-4H-pyrazolo[5,1-c][1,4]oxazin-3-yl)pyrazolo[5,1-b]thiazole-7-carboxamide] | > 7.5 µM |
| Cc1cc(C(=O)NCCN2CCCC23CCC3)sc1NC(=O)c1cnn2cc(-c3cnn(C)c3)sc12 [Example 35, N-(5-((2-(5-azaspiro[3.4]octan-5-yl)ethyl)carbamoyl)-3-methylthiophen-2-yl)-2-(1-methyl-1H-pyrazol-4-yl)pyrazolo[5,1-b]thiazole-7-carboxamide] | > 7.5 µM |
| Cc1ncc(NC(=O)CN2CCCC2(C)C)cc1NC(=O)c1cnn2cc(-c3cccnc3OCCF)sc12 [Example 448, N-(5-(2-(2,2-dimethylpyrrolidin-1-yl)acetamido)-2-methylpyridin-3-yl)-2-(2-(2-fluoroethoxy)pyridin-3-yl)pyrazolo[5,1-b]thiazole-7-carboxamide] | > 7.5 µM |
| Cc1ncc(NC(=O)C[C@@H]2CCN(C(C)C)C2)cc1NC(=O)c1cnn2cc(-c3cnn(C)c3)sc12 [Example 464, (S)—N-(5-(2-(1-isopropylpyrrolidin-3-yl)acetamido)-2-methylpyridin-3-yl)-2-(1-methyl-1H-pyrazol-4-yl)pyrazolo[5,1-b]thiazole-7-carboxamide] | > 7.5 µM |
| Cc1ncc(C(=O)NCCN2CC(C)(C)C2)cc1NC(=O)c1cnn2cc(-c3cnn4c3CCC4)sc12 [Example 482, 2-(5,6-dihydro-4H-pyrrolo[1,2-b]pyrazol-3-yl)-N-(5-((2-(3,3-dimethylazetidin-1-yl)ethyl)carbamoyl)-2-methylpyridin-3-yl)pyrazolo[5,1-b]thiazole-7-carboxamide] | > 7.5 µM |
